Reference: patent US20240336615A1, “CYCLOPROPYL-(HETERO)ARYL-SUBSTITUTED ETHYL-SULFOXIME-PYRIDINE DERIVATIVES” (Boehringer Ingelheim Vetmedica GmbH, priority 2023, published 2024)
One block for each molecule: values may come before it.

Legend:
adult C. felis fleas [1] = assay: Ingestion activity against adult Ctenocephalides felis, membrane feeding, alternative method (Examples 7 and 13); details: Ctenocephalides felis
Protocol: Selected compounds of formula (I), (Ia) and (Ib) and compound “125” of WO 2021/033141 dissolved in 100% DMSO are diluted in bovine blood with sodium heparin anti-coagulant. The resulting formulation is offered via an artificial membrane feeding system to approximately 15 adult C. felis fleas previously dispensed into 24-well plates. The plates are then incubated in a double-chambered device. Visual evaluation for mortality is performed at 48 hours post-treatment. Compound efficacy at a given dose is expressed as percentage mortality and determined by normalization to positive and negative controls. A dose response series is implemented to determine EC50 values.
Compounds of formulae (I), (Ia) and/or (Ib) dissolved in 100% DMSO are diluted in bovine blood with sodium heparin anti-coagulant. The resulting formulation is offered via an artificial membrane feeding system to approximately 15 adult C. felis fleas previously dispensed into 24-well plates. The plates are then incubated in a double-chambered device. Visual evaluation for mortality is performed at 48 hours post-treatment. Compound efficacy at a given dose is expressed as percentage mortality and determined by normalization to positive and negative controls. A dose response series is implemented to determine EC50 values.

Plutella xylostella = assay: Insecticidal test on Plutella xylostella (Example 15); format: in vivo; details: 144 h, Chinese cabbage seedling dip, 6 days after dip treatment, read-out: activity level (corrected mortality rate)
Protocol: The compounds of formula (I), (Ia) and/or (Ib) of the present invention or salts thereof are separately dispersed in water and diluted to 500 ppm and 50 ppm. Ten adults of Plutella xylostella are released onto Chinese cabbage seedlings and allowed to lay eggs thereon. 2 days after the release of the adults, the seedling is dipped in the dispersion for about 30 seconds. After air dried, the seedling is kept in a room at 25° C. 6 days after the dip treatment, the numbers of the dead and alive insects are counted. The corrected mortality rate is calculated according to the following formula and the insecticidal activity is evaluated according to the following criteria.

Laodelphax striatellus = assay: Insecticidal test on Laodelphax striatellus (Example 16); format: in vivo; details: 192 h, rice seedling dip, 3rd-instar nymphs, 8 days after inoculation, read-out: activity level (corrected mortality rate)
Protocol: The compounds of formula (I), (Ia) and/or (Ib) of the present invention or salts thereof are separately dispersed in water and diluted to 500 ppm and 50 ppm. Rice plant seedlings are dipped in the dispersion for about 30 seconds. After air dried, the seedlings are put into a separate glass test tube and inoculated with ten 3rd-instar nymphs of Laodelphax striatellus and then the glass test tube is kept in a room at 25° C. 8 days after the inoculation, the numbers of the dead and alive insects are counted. The corrected mortality rate is calculated according to the following formula and the insecticidal activity is evaluated according to the following criteria.

Myzus persicae = assay: Insecticidal test on Myzus persicae (Example 17); format: in vivo; details: 144 h, foliar application on Chinese cabbage, 6 days after application, read-out: control efficacy level (control rate)
Description: The compounds of formula (I), (Ia) and/or (Ib) of the present invention or salts thereof are separately dispersed in water and diluted to 500 ppm and 50 ppm. Chinese cabbage plants are planted in plastic pots (diameter: 8 cm, height: 8 cm). Aphids (Myzus persicae) are propagated on the plants and then the number of surviving aphids is counted. The dispersion is applied to the foliage of the potted plants. After the plants are air dried, these are kept in a greenhouse. 6 days after the application, the number of the alive insects is counted on the plants. The control rate is calculated according to the following formula and the control efficacy is evaluated according to the following criteria. [formula] • Ta: the number of alive insects before the foliar application in a treated plot • T: the number of alive insects after the foliar application in a treated plot • Ca: the number of alive insects before the foliar application in an untreated plot • C: the number of alive insects after the foliar application in an untreated plot • A: the control rate is 100% • B: the control rate is 90 to 99% • C: the control rate is 80 to 89% • D: the control rate is 50 to 79%

[2] = test system: adult Ctenocephalides felis fleas; assay: Contact activity against adult Ctenocephalides felis (Example 4); details: adult C. felis, coated pipe cleaner in vial, 72 hours post-treatment, read-out: EC50 (contact activity, percentage mortality)
Protocol: Compounds of formulae (I), (Ia) and/or (Ib) dissolved in 100% DMSO are diluted in acetone to a desired concentration. The resulting formulation is used to coat the fibers of a 0.5-inch-long piece of pipe cleaner placed in a glass scintillation vial. The vial is capped with a rubber gasket and filter paper insert. After the acetone has evaporated, ten adult Ctenocephalides felis fleas are added to each vial. The vials are then incubated at 22° C., 80% relative humidity, and 12 hours of light/12 hours of dark until a visual evaluation for mortality is performed at 72 hours post-treatment. Compound efficacy at a given dose is expressed as percentage mortality and adjusted to remove background mortality observed in control vials containing DMSO only. A dose response series of treated vials is implemented to determine EC50 values.

adult C. felis fleas [3] = assay: Ingestion activity against adult Ctenocephalides felis, membrane feeding, motility (Example 6); details: 48 h, bovine blood via artificial membrane, 48h post treatment, read-out: EC50 (ingestion activity, % motility reduction)
Protocol: Compounds of formulae (I), (Ia) and/or (Ib) dissolved in 100% DMSO are added to bovine blood and offered via an artificial membrane feeding system to adult C. felis fleas. The motility of fleas is then visually inspected 48h post treatment. Efficacy is expressed in % motility reduction compared to controls containing blood treated with DMSO only. A dose response series is implemented to determine EC50 values.

Spodoptera litura = assay: Insecticidal test on Spodoptera litura (Example 14); format: in vivo; details: foliar, 192 h, 500 ppm, cabbage leaf dip, 2nd-instar larvae, 8 days after inoculation, read-out: activity level (corrected mortality rate)
Protocol: The compounds of formula (I), (Ia) and/or (Ib) of the present invention or salts thereof are separately dispersed in water and diluted to 500 ppm and 50 ppm. Cabbage leaves are dipped in the dispersion for about 30 seconds. After air dried, the leaves are placed in a plastic Petri dish with a diameter of 9 cm and inoculated with ten 2nd-instar larvae of Spodoptera litura, after which the dish is closed and then allowed to stand in a room at 25° C. 8 days after the inoculation, the numbers of the dead and alive insects are counted. The corrected mortality rate is calculated according to the following formula and the insecticidal activity is evaluated according to the following criteria.
[formula] [formula] • A: the corrected mortality rate is 100% • B: the corrected mortality rate is 90 to 99% • C: the corrected mortality rate is 80 to 89% • D: the corrected mortality rate is 50 to 79%

[4] = adult C. felis, bovine blood with sodium heparin, membrane feeding, 48 hours post-treatment, read-out: EC50 (ingestion activity, percentage mortality, alternative method)
[5] = alternative method according to Example 7, mortality at 48 hours post-treatment, read-out: C. felis membrane feeding (ingestion/blood feeding) activity EC50

Compound: CCS(=N)(=O)c1cc(-c2ccc(C3(C#N)CC3)cc2)cnc1-c1nc2cc(C(F)(F)F)cn(CC(F)F)c-2c1F (stereo not shown) [Compound 17]
EC50 (adult C. felis fleas [1]; [4]): < 1 µM
EC50 (adult C. felis fleas [1]; [5]): 0.33 µM

Compound: CCS(=N)(=O)c1cc(-c2noc(C3(F)CC3)n2)cnc1-c1nc2cc(C(C)(F)F)cnc2n1C (stereo not shown) [Compound 18]
mortality at 50 ppm (Plutella xylostella): 100%
mortality at 50 ppm (Laodelphax striatellus): 100%
pest or weed control at 50 ppm (Myzus persicae): 100%

Compound: CCS(=N)(=O)c1cc(-n2cc(C3(C#N)CC3)cn2)cnc1-c1nc2cc(C(F)(F)C(F)(F)F)cnc2n1C (stereo not shown) [Compound 26]
EC50 (adult C. felis fleas [3]): < 1 µM
EC50 (adult C. felis fleas [1]; [4]): < 1 µM
EC50 (adult C. felis fleas [1]; [5]): 0.875 µM
mortality at 500 ppm (Spodoptera litura): 100%
mortality at 500 ppm (Plutella xylostella): 100%
mortality at 500 ppm (Laodelphax striatellus): 100%
pest or weed control at 500 ppm (Myzus persicae): 100%

Compound: CCS(=N)(=O)c1cc(-c2noc(C3(F)CC3)n2)cnc1-c1nc2cc(C(C)(F)F)nnc2n1C (stereo not shown) [Compound 29]
EC50 [2]: 10 to 100 µM
EC50 (adult C. felis fleas [1]; [4]): 1 to 10 µM
mortality at 500 ppm (Plutella xylostella): 100%
mortality at 500 ppm (Laodelphax striatellus): 100%
pest or weed control at 500 ppm (Myzus persicae): 100%

Compound: CCS(=N)(=O)c1cc(-n2cc(C3CC3)cn2)cnc1-c1nc2cc(C(F)(F)C(F)(F)F)nnc2n1C (stereo not shown) [Compound 34]
EC50 [2]: 10 to 100 µM
mortality at 500 ppm (Spodoptera litura): 100%
mortality at 500 ppm (Plutella xylostella): 100%
mortality at 500 ppm (Laodelphax striatellus): 100%
pest or weed control at 500 ppm (Myzus persicae): 100%

Second part, led by results:

EC50 (adult C. felis fleas [3]): < 1 µM
Compound: CCS(=N)(=O)c1cc(-c2cn(C3CC3)cn2)cnc1-c1nc2cc(C(F)(F)C(F)(F)F)cnc2n1C (stereo not shown) [Compound 21]
EC50 [2]: 10 to 100 µM
EC50 (adult C. felis fleas [1]; [4]): < 1 µM
EC50 (adult C. felis fleas [1]; [5]): 0.403 µM
mortality at 500 ppm (Spodoptera litura): 100%
mortality at 500 ppm (Plutella xylostella): 100%
mortality at 500 ppm (Laodelphax striatellus): 100%
pest or weed control at 500 ppm (Myzus persicae): 100%

EC50 (adult C. felis fleas [3]): 1 to 10 µM
Compound: CCS(=N)(=O)c1cc(-n2cc(C3CC3)nn2)cnc1-c1nc2cc(C(F)(F)C(F)(F)F)cnc2n1C (stereo not shown) [Compound 28]
EC50 (adult C. felis fleas [1]; [4]): 1 to 10 µM
mortality at 500 ppm (Spodoptera litura): 100%
mortality at 500 ppm (Plutella xylostella): 100%
mortality at 500 ppm (Laodelphax striatellus): 100%
pest or weed control at 500 ppm (Myzus persicae): 100%

EC50 (adult C. felis fleas [3]): < 1 µM
Compound: CCS(=N)(=O)c1cc(-c2noc(C3(F)CC3)n2)cnc1-c1nc2cc(C(F)(F)C(F)(F)F)nnc2n1C (stereo not shown) [Compound 32]
EC50 [2]: < 10 µM
EC50 (adult C. felis fleas [1]; [4]): < 1 µM
EC50 (adult C. felis fleas [1]; [5]): 0.417 µM
mortality at 50 ppm (Plutella xylostella): 100%
mortality at 50 ppm (Laodelphax striatellus): 100%
pest or weed control at 50 ppm (Myzus persicae): 100%

EC50 (adult C. felis fleas [3]): 1 to 10 µM
Compound: CCS(=N)(=O)c1cc(-n2cc(C3(C#N)CC3)cn2)cnc1-c1nc2cc(C(F)(F)C(F)(F)F)nnc2n1C (stereo not shown) [Compound 33]
EC50 (adult C. felis fleas [1]; [4]): < 1 µM
EC50 (adult C. felis fleas [1]; [5]): 0.437 µM
mortality at 50 ppm (Plutella xylostella): 100%
mortality at 50 ppm (Laodelphax striatellus): 100%
pest or weed control at 50 ppm (Myzus persicae): 100%

EC50 (adult C. felis fleas [3]): 1 to 10 µM
Compound: CCS(=N)(=O)c1cc(-c2ccc(C3(C#N)CC3)cc2)cnc1-n1cc2cnc(C(F)(F)F)cc2n1 (stereo not shown) [Compound 35]
EC50 (adult C. felis fleas [1]; [4]): < 1 µM
EC50 (adult C. felis fleas [1]; [5]): 0.771 µM
